Source: PMC12169669, “Regio- and Stereoselective Synthesis of Nitro-fatty Acids as NRF2 Pathway Activators Working under Ambient or Hypoxic Conditions” (Journal of Medicinal Chemistry, 2025)

Assays:
[1] = test system: NRF2; assay: NRF2 stabilization in bone marrow cells (Western blot, whole-cell lysates); assay type: cell-based, mouse; settings: BMCs, 2 μM, 1 h
From the text: (§1) Primary bone marrow cells (BMCs) were isolated from 8–12-week-old male C57BL/6 mice (25–30 g, AnLab, Czech Republic). Mice were housed under standard conditions. BMCs were isolated as follows: The day before isolation, phosphate-buffered saline (PBS), ACK Lysis Buffer (A10492-01, Thermo Fisher Scientific), and Iscove’s Modified Dulbecco’s Medium (IMDM) (12440-053, Thermo Fisher Scientific) were placed in a hypoxic chamber (InvivO2 400, Baker Ruskinn, UK) with adjustable oxygen control to equilibrate for the target oxygen concentrations. On the day of the experiment, animals were euthanized using ketamine/xylazine, and bilateral femurs were extracted. BMCs were flushed with hypoxic (1% O2 unless stated otherwise) PBS supplemented with 2% fetal bovine serum (FBS; low endotoxin, FB-1101/500, Biosera, France). After hemolysis at room temperature using hypoxic ACK Lysis Buffer, nucleated BMCs were washed with hypoxic PBS + 2% FBS and counted using a TC20 automated cell counter (Bio-Rad). Cells were kept under hypoxic conditions prior to treatment. The medium for BMC culture, consisting of IMDM with 2% FBS and 1% penicillin/streptomycin (LM-A4118/100, Biosera, France), was supplemented with 10 ng/mL mouse IL-3, 10 ng/mL mouse IL-6, and 50 ng/mL mouse stem cell factor - SCF (213-13, 216-16, and 250-03, respectively; all from PeproTech). Cells were cultured at 37 °C in a humidified atmosphere containing 5% CO2 and the specified oxygen concentrations (21%, 4%, or 1%).
Briefly, 1.5 × 10^6 BMCs were placed in 0.2 mL of complete medium in 1.5 mL microtubes and incubated with 2 μM NO2FAs or the control (medium only) for 1 (NRF2), 4 (heme oxygenase-1, HO-1), or 7 (glutamate-cysteine ligase modifier subunit, GCLM) hours at the specified oxygen levels (21%, 4%, or 1%). Cells were then spun down and washed with PBS (from this step onward, cells were processed under atmospheric conditions). Next, cells were lysed in 60 μL RIPA buffer (89901, Thermo Fisher Scientific) containing protease and phosphatase inhibitors cocktail (78442, Thermo Fisher Scientific). Cell lysates were sonicated and centrifuged at 15,000g for 3 min at 4 °C, and 15 μL of lane marker (3900, Thermo Fisher Scientific) was added to the supernatants. Samples were boiled for 3 min at 95 °C. Equal volumes of lysates (15–45 μL/well) were loaded onto 7–15% SDS-polyacrylamide gels. Proteins were then transferred onto PVDF membranes (IPVH85R, EMD Millipore Corp.) and blocked with 5% nonfat dry milk in TBST. Membranes were incubated overnight at 4 °C with the following primary antibodies: anti-β-actin (1:1000; #3700, Cell Signaling Technology), antivinculin (1:10,000; #SAV9264, Sigma-Aldrich), anti-NRF2 (1:500; A308758, Lot 38410, Antibodies.com, UK), anti-HO-1 (1:1000; #43966, Cell Signaling Technology), antihistone H3 (1:2000; #4499, Cell Signaling Technology), or anti-GCLM (1:100; sc-55586, Santa Cruz Biotechnology). This was followed by incubation with corresponding HRP-linked secondary antibodies (antimouse IgG, #7076, 1:1000–5000; or antirabbit IgG, #7074, 1:1000–2000; both from Cell Signaling Technology) for 1 h at room temperature. Protein bands were visualized using an enhanced chemiluminescent substrate (SuperSignal 34577/34095, Thermo Fisher Scientific). The optical densities of detected proteins were measured using ImageJ v1.52 (NIH).
2 Stabilization of NRF2 by tested NO2FA derivatives. NO 2 FA derivatives stabilize NRF2 in mouse bone marrow cells (BMCs). Nucleated BMCs were cultured under varying oxygen conditions (21%, 4%, and 1%) and treated for 1 h with 2 μM of the tested NO 2 FAs, followed by analysis of NRF2 expression in whole-cell lysates. Results are shown as the fold change relative to control cells across different oxygen culture conditions (A–C). Data are expressed as mean ± SD from 3–4 independent experiments (n = 3–4). Statistical analysis was performed using one-way ANOVA with Dunnett’s multiple comparisons test (* p < 0.05).

[2] = test system: Gclm; assay: Relative gene expression of Gclm in BMCs (qRT-PCR); assay type: cell-based, mouse; settings: 2 μM, 4 h; for Gclm relative expression: 4% and 1% oxygen
From the text: as §1
For the relative gene expression of nuclear factor erythroid 2-related factor 2 (NRF2, encoded by Nfe2l2), heme oxygenase-1 (Hmox1), and Glutamate-Cysteine Ligase Modifier Subunit (Gclm) (Mm00477784_m1, Mm00516005_m1, Mm00514996_m1, all from Thermo Fisher Scientific), mouse BMC (3 × 10^6 cells) were cultivated on a 6-well plate in 1.5 mL of complete media (see Isolation and culture of primary cells), and then incubated with 2 μM NO2FAs or control (medium only) for 4 h at the specified oxygen levels (21%, 4%, or 1%). Then, the adherent and nonadherent cells were washed with PBS and lysed using a NucleoSpin RNA Plus kit (740984, Machery-Nagel; Germany). The concentration and purity of isolated RNA was assessed using an Infinite M200 Pro spectrophotometer (Tecan, Austria). Total RNA (0.2 μg) was reversely transcribed into first strand cDNA using a RevertAid First Strand cDNA Synthesis kit according to the manufacturer’s protocol (K1622, Thermo Fisher Scientific). qRT-PCR reactions were performed in a LightCycler480 instrument (Roche; Switzerland) using TaqMan FastAdvanced Master Mix for qPCR (4444557, Thermo Fisher Scientific) and the following program was used: uracil-N-glycosylase activation step at 50 °C for 2 min, an initial denaturation step at 95 °C for 2 min, followed by 45 cycles (95 °C for 3 s, 60 °C for 30 s), and a final cooling step at 40 °C for 1 min. Data were normalized to ribosomal protein L32 (Rpl32, Mm02528467_g1, Thermo Fisher Scientific) and presented as 2^–Δcq.
3 Expression of NRF2 and its target genes in response to NO2FA derivatives. BMCs were cultured under 4% or 1% oxygen conditions and treated for 4 h with the tested NO 2 FAs (2 μM) or medium followed by quantification of (A) Nfe2l2, (B) Hmox1, and (C) Gclm with PCR. Results are presented as relative expression across different oxygen culture conditions. Dimethyl fumarate (DMF) was added as a control. Data are expressed as mean ± SD from 3 to 7 independent experiments (n = 3–7), analyzed with one-way ANOVA with Dunnett’s multiple comparisons test compared to the controls (*p < 0.05; **p < 0.01; ***p < 0.001).
Relative expression of (A) Hmox1 and (B) Gclm in different oxygen […]
Figure S 2. Relative expression of (A) Hmox1 and (B) Gclm in different oxygen conditions. BMCs were cultured under varying oxygen conditions (21, 4, and 1%) and treated for 4 hours with the tested 10 -NO₂OA (2 µM) or medium followed by quantification […]
with PCR. […]

SMILES | NRF2 expression (stabilization), fold change relative to control ([1]; 1% oxygen) | NRF2 expression (stabilization), fold change relative to control ([1]; 4% oxygen) | NRF2 expression (stabilization), fold change relative to control ([1]; 21% oxygen) | Gclm relative expression [2] | Gclm expression at 1% oxygen compared to 21% ([2]; 1% vs 21% oxygen)
CCCCCCCCC(CCCCCCCCC(=O)O)[N+](=O)[O-] (centres unmarked) [10-NO2SA, 10-Nitro Stearic acid] | no effect | no effect | no effect | no effects | –
CCCCCCCC/C=C(\CCCCCCCC(=O)O)[N+](=O)[O-] [9-NO2OA, (9E)-9-Nitro-oleic Acid] | significantly increased | – | – | significant upregulation | –
CCCCCC/C=C/C=C(\CCCCCCCC(=O)O)[N+](=O)[O-] [9-NO2cLA, (9E,11E)-9-Nitro Conjugated Linoleic Acid] | nonsignificant increase | nonsignificant increase | – | upregulation that was dependent on oxygen levels | –
CCCCC/C=C\C/C(=C\CCCCCCCC(=O)O)[N+](=O)[O-] [10-NO2LA, (9E,12Z)-10-Nitro Linoleic Acid] | – | significantly increased | – | upregulation that was dependent on oxygen levels or specific target genes | –
CCCCCCCC/C(=C\CCCCCCCC(=O)O)[N+](=O)[O-] [10-NO2OA, (9E)-10-Nitro-oleic Acid] | significantly increased | – | – | significant upregulation | not observed
